From publication PMC8230474, “Synthesis of Novel Acyl Derivatives of 3-(4,5,6,7-Tetrabromo-1H-benzimidazol-1-yl)propan-1-ols—Intracellular TBBi-Based CK2 Inhibitors with Proapoptotic Properties” (International Journal of Molecular Sciences, 2021)
Like-named read-outs stand apart in the source and are kept apart here.

Assays:
[1] = target: human CK2 catalytic subunit (CK2α) (Homo sapiens, UniProt P68400); test: Radiometric (P81 filter isotopic) kinase assay, CK2 catalytic subunit; type: biochemical; conditions: read-out: Residual Activity of the Enzyme CK2α; for remaining activity at 5 µM: 5 µM compound; for remaining activity at 10 µM: 10 µM compound
Sequence of human CK2 catalytic subunit (CK2α) (P68400 whole entry): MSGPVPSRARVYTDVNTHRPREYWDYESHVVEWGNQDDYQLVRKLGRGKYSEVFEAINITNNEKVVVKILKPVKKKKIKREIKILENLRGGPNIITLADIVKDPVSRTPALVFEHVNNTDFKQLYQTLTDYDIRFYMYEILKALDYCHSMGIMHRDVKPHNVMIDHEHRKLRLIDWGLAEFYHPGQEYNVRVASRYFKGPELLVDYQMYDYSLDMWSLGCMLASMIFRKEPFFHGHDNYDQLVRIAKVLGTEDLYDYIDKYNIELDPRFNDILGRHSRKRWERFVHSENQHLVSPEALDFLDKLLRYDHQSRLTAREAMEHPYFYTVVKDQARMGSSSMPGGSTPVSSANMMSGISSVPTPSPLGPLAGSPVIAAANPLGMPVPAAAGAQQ

[2] = target: CK2 holoenzyme (CK2 α2β2) (Homo sapiens, UniProt P68400); test: Radiometric (P81 filter isotopic) kinase assay, CK2 holoenzyme; type: biochemical; conditions: read-out: Residual Activity of the Enzyme CK2 α2β2; for remaining activity at 5 µM: 5 µM compound; for remaining activity at 10 µM: 10 µM compound
Sequence of CK2 holoenzyme (CK2 α2β2) (P68400 whole entry): as above
Sequence of CK2 holoenzyme (CK2 α2β2) (P67870 whole entry partner): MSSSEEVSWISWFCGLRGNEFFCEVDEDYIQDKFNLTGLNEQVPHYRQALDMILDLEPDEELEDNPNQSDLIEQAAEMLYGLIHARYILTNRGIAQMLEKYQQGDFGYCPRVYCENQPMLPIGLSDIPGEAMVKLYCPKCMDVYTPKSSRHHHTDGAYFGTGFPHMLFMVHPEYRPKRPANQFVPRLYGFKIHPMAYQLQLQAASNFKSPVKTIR

PIM1 = PIM1 (Homo sapiens, UniProt P11309); test: Radiometric (P81 filter isotopic) kinase assay, PIM1; type: biochemical; conditions: read-out: Residual Activity of the Enzyme PIM1; for remaining activity at 5 µM: 5 µM compound; for remaining activity at 10 µM: 10 µM compound
Sequence of PIM1 (P11309 whole entry, species assumed): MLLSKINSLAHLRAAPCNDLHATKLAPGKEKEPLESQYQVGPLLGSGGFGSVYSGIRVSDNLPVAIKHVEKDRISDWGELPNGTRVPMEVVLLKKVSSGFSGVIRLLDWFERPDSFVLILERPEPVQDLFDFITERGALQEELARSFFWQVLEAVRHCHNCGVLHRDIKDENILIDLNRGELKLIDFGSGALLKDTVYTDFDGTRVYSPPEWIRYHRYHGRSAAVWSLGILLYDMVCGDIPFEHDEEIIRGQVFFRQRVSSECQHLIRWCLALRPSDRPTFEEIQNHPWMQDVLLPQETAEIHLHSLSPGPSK

MDA-MB-231 cells [3] = test: MTT viability assay, MDA-MB-231; type: cell-based; conditions: Homo sapiens, read-out: EC50 ± SD MDA-MB-231
Procedure: To test the anti-cancer effect of the TBBi derivatives, we treated the MCF-7 and MDA-MB-231 cells with the newly synthesized esters and previously reported compounds [34, 57] at the concentration range of 3.125 to 200 µM for 24 h, 48 h and 72 h. Additionally, the range of concentrations was extended by additional lower concentrations in MCF-7 for compound 4 with the minimum concentration of 0.195 µM. […] The EC50 values, describing the half maximal effective concentration of each tested compound, were calculated and are summarized in Table 2. […] We observed that the EC50 values increase in both cell lines with the elongation of fatty acids chain length in the tested compounds, thus strongly correlating with the decrease of their solubility in biological media as characterized by logS parameter (Table 2). The second reason for the decreased biological activity of the longer-chain aliphatic esters might be attributed to their greater resistance toward intracellular hydrolysis, which directly influences the slower release of the active form of the corresponding CK2 inhibitors. […] However, none of the tested compounds, except for compound 5, decreased the viability of both cell lines in a time-dependent manner (Figure 4).
MCF-7 and MDA-MB-231 were cultured in high-glucose Dulbecco’s modified Eagle medium (DMEM, Lonza, Basel, Switzerland) supplemented with 10% fetal bovine serum (FBS, EuroClone, Siziano, Italy)), 2 mM L-glutamine, and antibiotics (100 U/mL penicillin, 100 µg/mL streptomycin) (Sigma-Aldrich Chemical Company (St. Louis, MO, USA). Cells were grown in 75-cm^2 cell culture flasks (Sarstedt, Nümbrecht, Germany) in a humidified atmosphere of CO2/air (5%/95%) at 37 °C. All the experiments were performed in exponentially growing cultures. Stock solutions of the test compounds were prepared in DMSO and stored in −80 °C for a maximum of one month. For the cytotoxicity studies, stock solutions of the tested compounds were diluted 200-fold with the proper culture medium to obtain the final concentrations.
After incubation with the tested compounds, an MTT test was performed as described previously. Optical densities were measured at 570 nm using BioTek microplate reader (Winooski, VT, USA). All measurements were carried out in a minimum of three biological replicates.

MDA-MB-231 cells [4] = test: Annexin V-FITC/PI flow cytometry, MDA-MB-231; type: cell-based, human; conditions: compound at its EC50
Procedure: Similar to the results obtained for MCF-7 cells, compound 6b acted in MDA-MB-231 cells as an effective inducer of apoptosis with the amount of apoptotic cells equal to 31.5% and 49% after 24 h and 72 h of treatment, respectively.
MCF-7 cells were seeded in six-well plates at 1.5 × 10^5 cells/well. […] Then, the plates were incubated for 24 h or 72 h. After exposure to the examined compounds, the floating cells were collected, and monolayer cell culture was trypsinized. The cells were centrifugated at 200× g at 4 °C for 5 min, washed twice in cold phosphate-buffered saline (PBS), and subsequently suspended in binding buffer at 1 × 10^6 cells/mL. Subsequently, 100-μL aliquots of the cell suspension were labeled according to the kit manufacturer’s instructions. Briefly, annexin V-fluorescein isothiocyanate and propidium iodide (BD Biosciences, Pharmingen, San Diego, CA, USA) were added to the cell suspension, and the mixture was vortexed and then incubated for 15 min at RT in the dark. A cold binding buffer (900 μL) was then added and the cells were vortexed again and kept on ice. Flow cytometric measurements were performed within 1 h after labeling. Viable, necrotic, early, and late apoptotic cells were detected by flow cytometry using CyFlow Cube 8 (Sysmex, Norderstedt, Germany) flow cytometer.

SMILES	remaining activity at 5 µM [1] [%]	remaining activity at 10 µM [1] [%]	remaining activity at 5 µM [2] [%]	remaining activity at 10 µM [2] [%]	remaining activity at 5 µM (PIM1) [%]	remaining activity at 10 µM (PIM1) [%]	EC50 (MDA-MB-231 cells [3]; 24 h) [µM]	EC50 (MDA-MB-231 cells [3]; 48 h) [µM]	EC50 (MDA-MB-231 cells [3]; 72 h) [µM]	apoptotic cells (MDA-MB-231 cells [4]; MDA-MB-231, 24 h treatment) [%]	apoptotic cells (MDA-MB-231 cells [4]; MDA-MB-231, 72 h treatment) [%]
CCCCCC(=O)OCCCn1c(C)nc2c(Br)c(Br)c(Br)c(Br)c21 [Compound 6b, (4,5,6,7-Tetrabromo-2-methyl-1H-benzimidazol-1-yl)propyl hexanoate]	76.8 ± 1.9	74.3 ± 0.1	85.4 ± 0.6	71.4 ± 0.2	62.4 ± 8.3	46.4 ± 2.7	51.4 ± 8.22	21.2 ± 2.4	22.1 ± 3.18	31.5	49
CCCCCCCC(=O)OCCCn1cnc2c(Br)c(Br)c(Br)c(Br)c21 [Compound 3c, 3-(4,5,6,7-Tetrabromo-1H-benzimidazol-1-yl)propyl octanoate]	86.1 ± 4.2	79.2 ± 7.6	95.3 ± 2.9	92.7 ± 3.5	99.1 ± 15.7	95.4 ± 4	45.1 ± 5.43	23.7 ± 3.97	32.8 ± 3.25	32.5	50.5
